Experiments:
[1] = molecular target: T1, 5-hydroxytryptamine receptor 1A (Rattus norvegicus, UniProt P19327); assay: Binding affinity to rat 5HT1A
T1 sequence (P19327 whole entry): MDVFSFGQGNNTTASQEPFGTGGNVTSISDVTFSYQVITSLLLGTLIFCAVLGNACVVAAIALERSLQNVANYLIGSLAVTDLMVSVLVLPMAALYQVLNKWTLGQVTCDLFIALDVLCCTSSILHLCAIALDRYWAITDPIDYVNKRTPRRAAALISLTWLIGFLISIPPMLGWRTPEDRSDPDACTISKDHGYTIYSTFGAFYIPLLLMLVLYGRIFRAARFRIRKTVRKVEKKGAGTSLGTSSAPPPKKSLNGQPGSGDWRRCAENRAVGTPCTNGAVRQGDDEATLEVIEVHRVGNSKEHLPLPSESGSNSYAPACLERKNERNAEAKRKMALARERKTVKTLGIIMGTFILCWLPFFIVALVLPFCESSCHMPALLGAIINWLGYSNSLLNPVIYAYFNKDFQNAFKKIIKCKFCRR

[2] = molecular target: T2, 5-hydroxytryptamine receptor 1A (Rattus norvegicus) (UniProt P19327); assay: Binding affinity to rat 5HT1A at 0.01 uM
T2 sequence (whole entry): T1 sequence (P19327 whole entry)

[3] = molecular target: T3, 5-hydroxytryptamine receptor 7 (Homo sapiens, UniProt P34969); assay: Displacement of [3H]LSD from human 5HT7 in sf9 cells; type: cell-based
T3 sequence (P34969 whole entry): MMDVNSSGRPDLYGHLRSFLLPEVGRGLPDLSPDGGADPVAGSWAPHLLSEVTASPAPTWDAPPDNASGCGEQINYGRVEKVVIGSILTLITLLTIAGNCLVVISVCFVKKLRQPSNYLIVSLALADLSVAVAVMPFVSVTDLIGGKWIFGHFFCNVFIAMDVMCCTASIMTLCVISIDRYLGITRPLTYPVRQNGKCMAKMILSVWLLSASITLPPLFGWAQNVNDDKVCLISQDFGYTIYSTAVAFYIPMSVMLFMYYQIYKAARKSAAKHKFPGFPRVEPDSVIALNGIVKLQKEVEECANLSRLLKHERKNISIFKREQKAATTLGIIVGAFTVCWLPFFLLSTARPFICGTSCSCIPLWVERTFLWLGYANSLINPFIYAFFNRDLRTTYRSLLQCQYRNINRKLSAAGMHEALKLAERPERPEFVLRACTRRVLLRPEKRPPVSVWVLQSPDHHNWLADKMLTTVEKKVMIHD

[4] = molecular target: T2, 5-hydroxytryptamine receptor 1A (Rattus norvegicus); assay: Binding affinity to rat 5HT1A at 1 uM
[5] = molecular target: T3, 5-hydroxytryptamine receptor 7; assay: Displacement of [3H]LSD from human 5HT7 in sf9 cells at 0.01 uM; type: cell-based
[6] = molecular target: T3, 5-hydroxytryptamine receptor 7; assay: Displacement of [3H]LSD from human 5HT7 in sf9 cells at 1 uM; type: cell-based
[7] = molecular target: 5-hydroxytryptamine receptor 7 (Rattus norvegicus) (UniProt P32305); assay: Antagonist activity at 5HT7 receptor stimulated aldosterone secretion from rat adrenal cortex; type: functional, tissue-based
Sequence of 5-hydroxytryptamine receptor 7 (Rattus norvegicus) (P32305 whole entry): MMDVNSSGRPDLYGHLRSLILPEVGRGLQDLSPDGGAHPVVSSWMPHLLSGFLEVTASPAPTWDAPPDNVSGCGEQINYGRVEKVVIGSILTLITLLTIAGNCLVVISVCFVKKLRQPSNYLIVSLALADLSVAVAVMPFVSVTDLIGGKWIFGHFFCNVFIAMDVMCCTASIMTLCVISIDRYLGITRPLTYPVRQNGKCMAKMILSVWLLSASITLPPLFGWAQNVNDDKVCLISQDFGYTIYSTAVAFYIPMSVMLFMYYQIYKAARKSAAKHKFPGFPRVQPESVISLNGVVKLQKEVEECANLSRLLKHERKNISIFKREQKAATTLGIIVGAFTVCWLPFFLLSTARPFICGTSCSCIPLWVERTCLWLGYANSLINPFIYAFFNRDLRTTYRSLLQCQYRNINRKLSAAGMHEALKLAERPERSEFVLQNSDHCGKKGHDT

[8] = Selectivity ratio of rat 5HT1A to human 5HT7

| Compound | Ki [1] | inhibition [2] | Ki [3] | inhibition [4] | inhibition [5] | inhibition [6] | pKb [7] | Activity ([7]; filed as partial agonist) | Ratio Ki [8] |
| --- | --- | --- | --- | --- | --- | --- | --- | --- | --- |
| Cc1ccccc1-c1cccc(CCN)c1 | 1.47 µM | 0% | 0.0075 µM | 37% | 71% | 92% |  |  |  |
| COc1ccc(-c2cccc(CCN(C)C)c2)cc1OC |  | 12% |  | 52% | 0% | 38% |  |  |  |
| COc1ccccc1-c1cccc(CCN(C)C)c1 | 0.531 µM | 12% | 0.0084 µM | 48% | 23% | 69% |  |  |  |
| Cc1cc(C)c(-n2ccc(CCN)c2)c(C)c1 |  | 0% |  | 0% | 0% | 0% |  |  |  |
| Cc1ccccc1-n1ccc(CCN(C)C)c1 |  | 14% |  | 41% | 16% | 87% |  |  |  |
| Cc1ccccc1-c1cccc(CCN(C)C)c1 | 0.443 µM | 1% | 0.0076 µM | 85% | 72% | 81% | 7.03 |  |  |
| Cc1cc(C)c(-n2ccc(CCN(C)C)c2)c(C)c1 |  | 0% |  | 20% | 3% | 56% |  |  |  |
| Cc1cccc(-n2ccc(CCN)c2)c1C |  | 0% |  | 17% | 25% | 48% |  |  |  |
| CN(C)CCc1cccc(-c2cccs2)c1 |  | 6% |  | 63% | 12% | 75% |  |  |  |
| CN(C)CCc1cccc(-c2ccccc2)c1 |  | 2% |  | 18% | 18% | 70% |  |  |  |
| COc1cccc(OC)c1-c1cccc(CCN2CCOCC2)c1 |  | 7% |  | 14% | 0% | 9% |  |  |  |
| COc1ccc(-c2cccc(CCN(C)C)c2)cc1 |  | 0% |  | 37% | 9% | 52% |  |  |  |
| CN(C)CCc1cccc(-c2ccsc2)c1 |  | 20% |  | 64% | 12% | 87% |  |  |  |
| COc1cccc(OC)c1-c1cccc(CCN(C)C)c1 | 4.83 µM | 3% | 0.0086 µM | 18% | 50% | 100% |  | Partial agonist | 60 |
| Cc1cccc(C)c1-c1cccc(CCN(C)C)c1 | 2.25 µM | 6% | 0.0062 µM | 33% | 73% | 93% |  |  | 60 |
| Cc1ccccc1-n1ccc(CCN)c1 |  | 0% |  | 16% | 5% | 62% |  |  |  |

Source: ChEMBL document CHEMBL1147987, “Novel aminoethylbiphenyls as 5-HT7 receptor ligands” (Bioorg Med Chem Lett, 2007)
